Reference: patent US7972859B2, “Authentication of ingestible products using saccharides as markers” (Authentix, Inc., priority 2006, dated 2011)
Like-named read-outs stand apart in the source and are kept apart here.

Assays:
[1] = target: Maltose binding protein (Escherichia coli, UniProt P0AEX9); details: cited from earlier work
[2] = target: T1, MBP (Escherichia coli, UniProt P0AEX9)
Protocol: TMB (3,3′,5,5′ tetramethylbenzidine) is a chromogen that yields a blue color when oxidized with hydrogen peroxide (catalyzed by HRP) with major absorbances at 370 nm and 652 nm. Adding sulfuric or phosphoric acid to stop the reaction changes the product to yellow that absorbs at 450 nm and provides greater sensitivity than the blue product.
For any test samples outside of such a range, dilution with a buffered solution is carried out.

[3] = target: T1, MBP; experiment: inhibition of amylose-MBP binding by maltose (ELISA); set-up: 6xHis (C); made in house; host or cells: E. coli BL-21 (DE3); species or system E. coli

maltotriose
Kd ([1]; Kd expressed as ppb): about 120 ppb

amylose
Absorbance at 450 nm ([2]; Na2CO3 buffer pH 8.3, listed as level 0.0001 (unit not given)): 0.215
Absorbance at 450 nm ([2]; Na2CO3 buffer pH 8.3, listed as level 0.0002 (unit not given)): 0.181
Absorbance at 450 nm ([2]; Na2CO3 buffer pH 8.3, listed as level 0.0005 (unit not given)): 0.233
Absorbance at 450 nm ([2]; Na2CO3 buffer pH 8.3, listed as level 0.001 (unit not given)): 0.216
Absorbance at 450 nm ([2]; Na2CO3 buffer pH 8.3, listed as level 0.01 (unit not given)): 0.440
Absorbance at 450 nm ([2]; Na2CO3 buffer pH 8.3, listed as level 0.1 (unit not given)): 0.870
Absorbance at 450 nm ([2]; Na2CO3 buffer pH 8.3, listed as level 1 (unit not given)): 0.748
Absorbance at 450 nm ([2]; Na2CO3 buffer pH 8.9, listed as level 0.0001 (unit not given)): 0.215
Absorbance at 450 nm ([2]; Na2CO3 buffer pH 8.9, listed as level 0.0002 (unit not given)): 0.170
Absorbance at 450 nm ([2]; Na2CO3 buffer pH 8.9, listed as level 0.0005 (unit not given)): 0.175
Absorbance at 450 nm ([2]; Na2CO3 buffer pH 8.9, listed as level 0.001 (unit not given)): 0.248
Absorbance at 450 nm ([2]; Na2CO3 buffer pH 8.9, listed as level 0.01 (unit not given)): 0.502
Absorbance at 450 nm ([2]; Na2CO3 buffer pH 8.9, listed as level 0.1 (unit not given)): 0.847
Absorbance at 450 nm ([2]; Na2CO3 buffer pH 8.9, listed as level 1 (unit not given)): 0.787
Absorbance at 450 nm ([2]; Na2CO3 buffer pH 9.3, listed as level 0.0001 (unit not given)): 0.196
Absorbance at 450 nm ([2]; Na2CO3 buffer pH 9.3, listed as level 0.0002 (unit not given)): 0.169
Absorbance at 450 nm ([2]; Na2CO3 buffer pH 9.3, listed as level 0.0005 (unit not given)): 0.152
Absorbance at 450 nm ([2]; Na2CO3 buffer pH 9.3, listed as level 0.001 (unit not given)): 0.179
Absorbance at 450 nm ([2]; Na2CO3 buffer pH 9.3, listed as level 0.01 (unit not given)): 0.438
Absorbance at 450 nm ([2]; Na2CO3 buffer pH 9.3, listed as level 0.1 (unit not given)): 0.828
Absorbance at 450 nm ([2]; Na2CO3 buffer pH 9.3, listed as level 1 (unit not given)): 0.788
Absorbance at 450 nm ([2]; Na2CO3 buffer pH 9.9, listed as level 0.0001 (unit not given)): 0.235
Absorbance at 450 nm ([2]; Na2CO3 buffer pH 9.9, listed as level 0.0002 (unit not given)): 0.182
Absorbance at 450 nm ([2]; Na2CO3 buffer pH 9.9, listed as level 0.0005 (unit not given)): 0.192
Absorbance at 450 nm ([2]; Na2CO3 buffer pH 9.9, listed as level 0.001 (unit not given)): 0.241
Absorbance at 450 nm ([2]; Na2CO3 buffer pH 9.9, listed as level 0.01 (unit not given)): 0.452
Absorbance at 450 nm ([2]; Na2CO3 buffer pH 9.9, listed as level 0.1 (unit not given)): 0.849
Absorbance at 450 nm ([2]; Na2CO3 buffer pH 9.9, listed as level 1 (unit not given)): 0.868
Absorbance at 450 nm ([2]; Na2CO3 buffer pH 10, listed as level 0.0001 (unit not given)): 0.237
Absorbance at 450 nm ([2]; Na2CO3 buffer pH 10, listed as level 0.0002 (unit not given)): 0.224
Absorbance at 450 nm ([2]; Na2CO3 buffer pH 10, listed as level 0.0005 (unit not given)): 0.183
Absorbance at 450 nm ([2]; Na2CO3 buffer pH 10, listed as level 0.001 (unit not given)): 0.160
Absorbance at 450 nm ([2]; Na2CO3 buffer pH 10, listed as level 0.01 (unit not given)): 0.432
Absorbance at 450 nm ([2]; Na2CO3 buffer pH 10, listed as level 0.1 (unit not given)): 0.793
Absorbance at 450 nm ([2]; Na2CO3 buffer pH 10, listed as level 1 (unit not given)): 0.918
Absorbance at 450 nm ([2]; Na2CO3 buffer pH 11, listed as level 0.0001 (unit not given)): 0.185
Absorbance at 450 nm ([2]; Na2CO3 buffer pH 11, listed as level 0.0002 (unit not given)): 0.183
Absorbance at 450 nm ([2]; Na2CO3 buffer pH 11, listed as level 0.0005 (unit not given)): 0.215
Absorbance at 450 nm ([2]; Na2CO3 buffer pH 11, listed as level 0.001 (unit not given)): 0.193
Absorbance at 450 nm ([2]; Na2CO3 buffer pH 11, listed as level 0.01 (unit not given)): 0.512
Absorbance at 450 nm ([2]; Na2CO3 buffer pH 11, listed as level 0.1 (unit not given)): 0.845
Absorbance at 450 nm ([2]; Na2CO3 buffer pH 11, listed as level 1 (unit not given)): 0.908
Absorbance at 450 nm ([2]; NaHCO3 buffer pH 5.7, listed as level 0.0001 (unit not given)): 0.297
Absorbance at 450 nm ([2]; NaHCO3 buffer pH 5.7, listed as level 0.0002 (unit not given)): 0.264
Absorbance at 450 nm ([2]; NaHCO3 buffer pH 5.7, listed as level 0.0005 (unit not given)): 0.314
Absorbance at 450 nm ([2]; NaHCO3 buffer pH 5.7, listed as level 0.001 (unit not given)): 0.238
Absorbance at 450 nm ([2]; NaHCO3 buffer pH 5.7, listed as level 0.01 (unit not given)): 0.465
Absorbance at 450 nm ([2]; NaHCO3 buffer pH 5.7, listed as level 0.1 (unit not given)): 0.861
Absorbance at 450 nm ([2]; NaHCO3 buffer pH 5.7, listed as level 1 (unit not given)): 0.815
Absorbance at 450 nm ([2]; NaHCO3 buffer pH 6.3, listed as level 0.0001 (unit not given)): 0.243
Absorbance at 450 nm ([2]; NaHCO3 buffer pH 6.3, listed as level 0.0002 (unit not given)): 0.192
Absorbance at 450 nm ([2]; NaHCO3 buffer pH 6.3, listed as level 0.0005 (unit not given)): 0.271
Absorbance at 450 nm ([2]; NaHCO3 buffer pH 6.3, listed as level 0.001 (unit not given)): 0.219
Absorbance at 450 nm ([2]; NaHCO3 buffer pH 6.3, listed as level 0.01 (unit not given)): 0.392
Absorbance at 450 nm ([2]; NaHCO3 buffer pH 6.3, listed as level 0.1 (unit not given)): 0.879
Absorbance at 450 nm ([2]; NaHCO3 buffer pH 6.3, listed as level 1 (unit not given)): 0.826
Absorbance at 450 nm ([2]; NaHCO3 buffer pH 6.9, listed as level 0.0001 (unit not given)): 0.199
Absorbance at 450 nm ([2]; NaHCO3 buffer pH 6.9, listed as level 0.0002 (unit not given)): 0.154
Absorbance at 450 nm ([2]; NaHCO3 buffer pH 6.9, listed as level 0.0005 (unit not given)): 0.234
Absorbance at 450 nm ([2]; NaHCO3 buffer pH 6.9, listed as level 0.001 (unit not given)): 0.140
Absorbance at 450 nm ([2]; NaHCO3 buffer pH 6.9, listed as level 0.01 (unit not given)): 0.397
Absorbance at 450 nm ([2]; NaHCO3 buffer pH 6.9, listed as level 0.1 (unit not given)): 0.896
Absorbance at 450 nm ([2]; NaHCO3 buffer pH 6.9, listed as level 1 (unit not given)): 0.853
Absorbance at 450 nm ([2]; NaHCO3 buffer pH 7.1, listed as level 0.0001 (unit not given)): 0.217
Absorbance at 450 nm ([2]; NaHCO3 buffer pH 7.1, listed as level 0.0002 (unit not given)): 0.195
Absorbance at 450 nm ([2]; NaHCO3 buffer pH 7.1, listed as level 0.0005 (unit not given)): 0.200
Absorbance at 450 nm ([2]; NaHCO3 buffer pH 7.1, listed as level 0.001 (unit not given)): 0.159
Absorbance at 450 nm ([2]; NaHCO3 buffer pH 7.1, listed as level 0.01 (unit not given)): 0.366
Absorbance at 450 nm ([2]; NaHCO3 buffer pH 7.1, listed as level 0.1 (unit not given)): 0.855
Absorbance at 450 nm ([2]; NaHCO3 buffer pH 7.1, listed as level 1 (unit not given)): 0.849
Absorbance at 450 nm ([2]; NaHCO3 buffer pH 7.7, listed as level 0.0001 (unit not given)): 0.242
Absorbance at 450 nm ([2]; NaHCO3 buffer pH 7.7, listed as level 0.0002 (unit not given)): 0.208
Absorbance at 450 nm ([2]; NaHCO3 buffer pH 7.7, listed as level 0.0005 (unit not given)): 0.187
Absorbance at 450 nm ([2]; NaHCO3 buffer pH 7.7, listed as level 0.001 (unit not given)): 0.254
Absorbance at 450 nm ([2]; NaHCO3 buffer pH 7.7, listed as level 0.01 (unit not given)): 0.387
Absorbance at 450 nm ([2]; NaHCO3 buffer pH 7.7, listed as level 0.1 (unit not given)): 0.817
Absorbance at 450 nm ([2]; NaHCO3 buffer pH 7.7, listed as level 1 (unit not given)): 0.809

OC[C@H]1O[C@H](O[C@H]2[C@H](O)[C@@H](O)[C@H](O)O[C@@H]2CO)[C@H](O)[C@@H](O)[C@@H]1O [maltose]
saturated at (level) ([1]; saturation of maltose binding protein, as ppb): about 400 ppb
saturated at (concentration) ([1]; saturation of maltose binding protein): about 10 μM
interference with binding of MBP with amylose ([3]; 50 μM maltose): 90%
inhibition at 5000 µM ([3]; read-out: inhibition of binding of MBP to amylose): 95%
